Converted amounts (≈) assume the structure as drawn. “And” between values parts separate entries of the source, which are not always exact repeats. Equal entries are not always repeated.
How the values were obtained:
Format in all cases: functional
Staphylococcus aureus [1] = experiment: Antibiofilm activity against Staphylococcus aureus ATCC 25923 assessed as inhibition of biofilm viability at 100 uM incubated for 18 to 20 hrs by resazurin staining based assay; details: time 18-20 hrs
Staphylococcus aureus [2] = experiment: Antibacterial activity against Staphylococcus aureus ATCC 43300 assessed as reduction in bacterial growth incubated for 18 to 20 hrs by broth microdilution assay; details: time 18-20 hrs
[3] = tested on: Staphylococcus epidermidis; experiment: Antibacterial activity against […] Staphylococcus epidermidis RP62A assessed as reduction in bacterial growth incubated for 18 to 20 hrs by broth microdilution assay; details: time 18-20 hrs
Enterococcus faecium = experiment: Antibacterial activity against vancomycin-resistant Enterococcus faecium ATCC 700221 assessed as reduction in bacterial growth incubated for 18 to 20 hrs by broth microdilution assay; details: time 18-20 hrs
Staphylococcus aureus [4] = experiment: Antibacterial activity against […] Staphylococcus aureus ATCC 43300 assessed as reduction in bacterial growth incubated for 18 to 20 hrs by broth microdilution assay; details: time 18-20 hrs
Staphylococcus aureus [5] = experiment: Antibiofilm activity against Staphylococcus aureus ATCC 25923 assessed as inhibition of biofilm biomass at 100 uM incubated for 18 to 20 hrs by crystal violet staining based assay; details: time 18-20 hrs
Staphylococcus aureus [6] = experiment: Antibacterial activity against Staphylococcus aureus ATCC 25923 assessed as inhibition of bacterial growth at 40 uM incubated for 18 to 24 hrs by broth microdilution assay relative to control; details: time 18-24 hrs
Pseudomonas aeruginosa = experiment: Antibacterial activity against Pseudomonas aeruginosa ATCC 15442 assessed as reduction in bacterial growth incubated for 18 to 20 hrs by broth microdilution assay; details: time 18-20 hrs
Enterococcus faecalis [7] = experiment: Antibacterial activity against Enterococcus faecalis ATCC 29212 assessed as reduction in bacterial growth incubated for 18 to 20 hrs by broth microdilution assay; details: time 18-20 hrs
Enterococcus faecalis [8] = experiment: Antibacterial activity against vancomycin-resistant Enterococcus faecalis ATCC 51575 assessed as reduction in bacterial growth incubated for 18 to 20 hrs by broth microdilution assay; details: time 18-20 hrs
Staphylococcus aureus [9] = experiment: Antibacterial activity against Staphylococcus aureus ATCC 25923 assessed as reduction in bacterial growth incubated for 18 to 20 hrs by broth microdilution assay; details: time 18-20 hrs
[10] = tested on: Staphylococcus epidermidis; experiment: Antibacterial activity against Staphylococcus epidermidis RP62A assessed as reduction in bacterial growth incubated for 18 to 20 hrs by broth microdilution assay; details: time 18-20 hrs
Acinetobacter baumannii = experiment: Antibacterial activity against Acinetobacter baumannii NCTC 13423 assessed as reduction in bacterial growth incubated for 18 to 20 hrs by broth microdilution assay; details: time 18-20 hrs

SMILES | inhibition at 100 µM (Staphylococcus aureus [1]) [%] | MIC (Staphylococcus aureus [2]) [µM] | MIC [3] [µM] | MIC (Enterococcus faecium) [µM] | MIC (Staphylococcus aureus [4]) [µM] | inhibition at 100 µM (Staphylococcus aureus [5]) [%] | inhibition at 40 µM (Staphylococcus aureus [6]) [%] | MIC (Pseudomonas aeruginosa) [µM] | MIC (Enterococcus faecalis [7]) [µM] | MIC (Enterococcus faecalis [8]) [µM] | MIC (Staphylococcus aureus [9]) | MIC [10] [µM] | MIC (Acinetobacter baumannii) [µM]
O=C(O)CC1CCCc2c1[nH]c1ccc(OCc3ccc(C4CCCC4)c(C(F)(F)F)c3)cc21 (configuration not stated) | > 90 | 5 (≈ 2.36 µg/mL) | 5 (≈ 2.36 µg/mL) | 5 (≈ 2.36 µg/mL) | 5 (≈ 2.36 µg/mL) | > 90 | ≤ 90 | > 200 | 5 (≈ 2.36 µg/mL) | 10 (≈ 4.72 µg/mL) | 5 µM and 2.4 µg/mL | 10 (≈ 4.72 µg/mL) | > 200
O=C(O)CC1CCc2c1[nH]c1ccc(OCc3ccc(-c4ccc(Cl)s4)c(C(F)(F)F)c3)cc21 (configuration not stated) | > 90 |  |  |  |  | > 90 | ≤ 90 |  |  |  | 5 µM and 2.5 µg/mL |  | 
CC(C)Cc1ccc(COc2ccc3[nH]c4c(c3c2)CCC4CC(=O)O)cc1C(F)(F)F (configuration not stated) | > 90 |  |  |  |  | > 90 | ≤ 90 |  |  |  | 10 µM and 4.5 µg/mL |  | 
O=C(O)Cc1c[nH]c2ccc(OCc3ccc(C4CCCC4)c(C(F)(F)F)c3)cc12 | > 90 |  |  |  |  | > 90 | ≤ 90 |  |  |  | 20 µM and 8.3 µg/mL |  | 
O=C(O)CC1CCc2c1[nH]c1ccc(OCc3ccc(C4CCCC4)cc3)cc21 (configuration not stated) | > 90 |  |  |  |  | > 90 | ≤ 90 |  |  |  | 20 µM and 7.8 µg/mL |  | 
O=C(O)CC1CCc2c1[nH]c1ccc(OCc3ccc(N4CCOCC4)c(C(F)(F)F)c3)cc21 (configuration not stated) | > 90 |  |  |  |  | > 90 | ≤ 90 |  |  |  | > 40 µM and > 19 µg/mL |  | 
N#Cc1cc(COc2ccc3[nH]c4c(c3c2)CCC4CC(=O)O)ccc1C1CCCC1 (configuration not stated) | > 90 |  |  |  |  | > 90 | ≤ 90 |  |  |  | 40 µM and 16.6 µg/mL |  | 
O=C(O)CC1CCc2c1[nH]c1ccc(OCc3ccc(C4CCCC4)c(C(F)(F)F)c3)cc21 (racemic) | > 90 |  |  |  |  | > 90 | ≤ 90 |  |  |  | 5 µM and 2.3 µg/mL |  | 
O=C(O)CC1CCc2c1[nH]c1ccc(OCc3noc(-c4ccc(C(F)(F)F)cc4)n3)cc21 (configuration not stated) | > 90 |  |  |  |  | > 90 | ≤ 90 |  |  |  | > 40 µM and > 18.3 µg/mL |  | 
O=C(O)CC1CCc2c1[nH]c1ccc(OCc3ccc(C4CCCCC4)c(C(F)(F)F)c3)cc21 (configuration not stated) | > 90 |  |  |  |  | > 90 | ≤ 90 |  |  |  | 5 µM and 2.4 µg/mL |  | 
CC(=O)NC[C@H]1CN(c2ccc(N3CCOCC3)c(F)c2)C(=O)O1 [LINEZOLID] |  |  |  | 5 (≈ 1.69 µg/mL) |  |  |  |  | 5 (≈ 1.69 µg/mL) | 5 (≈ 1.69 µg/mL) |  |  | 
O=C(O)c1ccc(OCc2ccc(C3CCCC3)c(C(F)(F)F)c2)cn1 | > 90 | 5 (≈ 1.83 µg/mL) | 10 (≈ 3.65 µg/mL) | 20 (≈ 7.31 µg/mL) | 5 (≈ 1.83 µg/mL) | > 90 | ≤ 90 | > 200 | 10 (≈ 3.65 µg/mL) | 20 (≈ 7.31 µg/mL) | 10 µM and 3.7 µg/mL | 5 (≈ 1.83 µg/mL) | > 200
O=C(O)Cc1c[nH]c2ccc(OCc3ccc(C4CCCCC4)c(C(F)(F)F)c3)cc12 | > 90 | 10 (≈ 4.31 µg/mL) | 10 (≈ 4.31 µg/mL) | 20 (≈ 8.63 µg/mL) | 10 (≈ 4.31 µg/mL) | > 90 | ≤ 90 | > 200 | 20 (≈ 8.63 µg/mL) | 20 (≈ 8.63 µg/mL) | 10 µM and 4.3 µg/mL | 10 (≈ 4.31 µg/mL) | > 200
O=C(O)Cc1ccc(OCc2ccc(C3CCCC3)c(C(F)(F)F)c2)cn1 | > 90 |  |  |  |  | > 90 | ≤ 90 |  |  |  | > 40 µM and > 15.2 µg/mL |  | 
CCCCc1ccc(COc2ccc3[nH]c4c(c3c2)CCC4CC(=O)O)cc1C(F)(F)F (configuration not stated) | > 90 |  |  |  |  | > 90 | ≤ 90 |  |  |  | 10 µM and 4.5 µg/mL |  | 
CS(=O)(=O)NC(=O)CC1CCc2c1[nH]c1ccc(OCc3ccc(C4CCCC4)c(C(F)(F)F)c3)cc21 (configuration not stated) | > 90 | 5 (≈ 2.67 µg/mL) | 10 (≈ 5.35 µg/mL) | 10 (≈ 5.35 µg/mL) | 5 (≈ 2.67 µg/mL) | > 90 | ≤ 90 | > 200 | 5 (≈ 2.67 µg/mL) | 5 (≈ 2.67 µg/mL) | 5 µM and 2.7 µg/mL | 10 (≈ 5.35 µg/mL) | > 200

SMILES | inhibition at 100 µM (Staphylococcus aureus [1]) [%] | MIC (Staphylococcus aureus [2]) [µM] | MIC [3] [µM] | MIC (Enterococcus faecium) [µM] | MIC (Staphylococcus aureus [4]) [µM] | inhibition at 100 µM (Staphylococcus aureus [5]) [%] | inhibition at 40 µM (Staphylococcus aureus [6]) [%] | MIC (Pseudomonas aeruginosa) [µM] | MIC (Enterococcus faecalis [7]) [µM] | MIC (Enterococcus faecalis [8]) [µM] | MIC (Staphylococcus aureus [9]) | MIC [10] [µM] | MIC (Acinetobacter baumannii) [µM]
NC(=O)CC1CCc2c1[nH]c1ccc(OCc3ccc(C4CCCC4)c(C(F)(F)F)c3)cc21 (configuration not stated) | > 90 |  |  |  |  | > 90 | ≤ 90 |  |  |  | 20 µM and 9.1 µg/mL |  | 
O=C(O)CC1CCc2c1[nH]c1ccc(OCc3ccc(-c4cccs4)c(C(F)(F)F)c3)cc21 (configuration not stated) | > 90 |  |  |  |  | > 90 | ≤ 90 |  |  |  | 10 µM and 4.7 µg/mL |  | 
O=C(O)Cn1ccc2cc(OCc3ccc(C4CCCC4)c(C(F)(F)F)c3)ccc21 | > 90 |  |  |  |  | > 90 | ≤ 90 |  |  |  | 20 µM and 8.3 µg/mL |  | 
CCCCCCCCOc1ccc2[nH]c3c(c2c1)CCC3CC(=O)O (configuration not stated) | > 90 |  |  |  |  | > 90 | ≤ 90 |  |  |  | 40 µM and 13.7 µg/mL |  | 
FC(F)(F)c1cc(COc2ccc3[nH]ccc3c2)ccc1C1CCCC1 | > 90 |  |  |  |  | > 90 | ≤ 90 |  |  |  | > 40 µM and > 14.4 µg/mL |  | 
Cc1nc(-c2ccc(C(F)(F)F)cc2)sc1COc1ccc2[nH]c3c(c2c1)CCC3CC(=O)O (configuration not stated) | > 90 |  |  |  |  | > 90 | ≤ 90 |  |  |  | 20 µM and 9.7 µg/mL |  | 
O=C(O)CC1CCc2c1[nH]c1ccc(OCc3ccc(C4CCCC4)c(F)c3)cc21 (configuration not stated) | > 90 |  |  |  |  | > 90 | ≤ 90 |  |  |  | 10 µM and 4.1 µg/mL |  | 
CCOC(=O)CC1CCc2c1[nH]c1ccc(OCc3ccc(C4CCCC4)c(C(F)(F)F)c3)cc21 (configuration not stated) | > 90 |  |  |  |  | > 90 | ≤ 90 |  |  |  | > 40 µM and > 19.4 µg/mL |  | 
O=C(O)c1cc2cc(OCc3ccc(C4CCCC4)c(C(F)(F)F)c3)ccc2[nH]1 | > 90 | 5 (≈ 2.02 µg/mL) | 2.5 (≈ 1.01 µg/mL) | 10 (≈ 4.03 µg/mL) | 5 (≈ 2.02 µg/mL) | > 90 | ≤ 90 | > 200 | 10 (≈ 4.03 µg/mL) | 10 (≈ 4.03 µg/mL) | 5 µM and 2 µg/mL | 5 (≈ 2.02 µg/mL) | > 200
O=C(O)CCc1c[nH]c2ccc(OCc3ccc(C4CCCC4)c(C(F)(F)F)c3)cc12 | > 90 |  |  |  |  | > 90 | ≤ 90 |  |  |  | 20 µM and 8.6 µg/mL |  | 
O=C(O)CC1CCc2c1[nH]c1ccc(OCc3cccc(C(F)(F)F)c3)cc21 (configuration not stated) | > 90 |  |  |  |  | > 90 | ≤ 90 |  |  |  | > 40 µM and > 15.6 µg/mL |  | 
O=C(O)CC1CCc2c1[nH]c1ccc(OCc3ccc(C4CCCCC4)c(OC(F)(F)F)c3)cc21 (configuration not stated) | > 90 | 5 (≈ 2.44 µg/mL) | 10 (≈ 4.88 µg/mL) | 5 (≈ 2.44 µg/mL) | 5 (≈ 2.44 µg/mL) | > 90 | ≤ 90 | > 200 | 5 (≈ 2.44 µg/mL) | 5 (≈ 2.44 µg/mL) | 5 µM and 2.4 µg/mL | 10 (≈ 4.88 µg/mL) | > 200
Cc1[nH]c2ccc(OCc3ccc(C4CCCC4)c(C(F)(F)F)c3)cc2c1CC(=O)O | > 90 |  |  |  |  | > 90 | ≤ 90 |  |  |  | 20 µM and 8.6 µg/mL |  | 
O=C(O)CC1CCc2c1[nH]c1ccc(OCc3ccc(C4CCCC4)c(OC(F)(F)F)c3)cc21 (configuration not stated) | > 90 |  |  |  |  | > 90 | ≤ 90 |  |  |  | 5 µM and 2.4 µg/mL |  | 
O=C(O)CC1CCc2c1[nH]c1ccc(OCc3ccc(OCC4CCCC4)c(C(F)(F)F)c3)cc21 (configuration not stated) | > 90 |  |  |  |  | > 90 | ≤ 90 |  |  |  | 10 µM and 4.9 µg/mL |  | 

Reference: ChEMBL document CHEMBL5532643, “Design and synthesis of etrasimod derivatives as potent antibacterial agents against Gram-positive bacteria” (Eur J Med Chem, 2024)
